Test results reported in article PMC8193492, “Yeast Cell-Based Transport Assay for the Functional Characterization of Human 4F2hc-LAT1 and ‐LAT2, and LAT1 and LAT2 Substrates and Inhibitors” (Frontiers in Molecular Biosciences, 2021).
Where “and” joins values, the source holds several entries; their conditions need not be identical. Identical values can stand only once. Like-named read-outs stand apart in the source and are kept apart here. Blank lines part the entries; values can stand above or below the compound they belong to.

Columns and labels:
[1] = system: 4F2hc-LAT1; settings: cited from earlier work; for IC50: read-out: 4F2hc-LAT1 IC50 of L-leucine uptake
[2] = molecular target: T1, human LAT2 (Homo sapiens, UniProt Q9UHI5); assay: [3H]L-leucine radioligand transport assay, P. pastoris cells expressing LAT2; type: cell-based; settings: P. pastoris KM71H cells, OD600 0.75, 0.1 µM [3H]L-leucine, 10 min uptake, 25°C
T1 construct: expressed in transfected cells; host or cells: Pichia pastoris KM71H (pPICZB vector)
T1 sequence (Q9UHI5 1-535): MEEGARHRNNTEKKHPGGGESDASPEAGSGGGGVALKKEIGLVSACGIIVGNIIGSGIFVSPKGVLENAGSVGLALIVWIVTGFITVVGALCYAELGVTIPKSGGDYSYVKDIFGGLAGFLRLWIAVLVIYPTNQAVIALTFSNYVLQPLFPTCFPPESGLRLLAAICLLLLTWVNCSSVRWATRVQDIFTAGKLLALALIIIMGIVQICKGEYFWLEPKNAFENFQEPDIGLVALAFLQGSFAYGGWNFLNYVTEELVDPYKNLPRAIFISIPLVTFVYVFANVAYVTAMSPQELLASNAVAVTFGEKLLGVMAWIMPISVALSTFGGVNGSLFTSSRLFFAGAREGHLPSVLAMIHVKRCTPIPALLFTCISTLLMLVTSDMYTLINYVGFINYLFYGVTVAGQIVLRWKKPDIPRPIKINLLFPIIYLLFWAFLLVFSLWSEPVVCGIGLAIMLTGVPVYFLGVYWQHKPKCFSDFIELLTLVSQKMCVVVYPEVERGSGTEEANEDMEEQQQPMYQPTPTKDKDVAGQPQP

[3] = system: 4F2hc-LAT1; settings: host Saos2, read-out: 4F2hc-LAT1 IC50 of L-leucine uptake, cited from earlier work
[4] = system: 4F2hc-LAT1; parameters: method as in Khunweeraphong et al. (2012); settings: host HEK293; ref Khunweeraphong et al. (2012); read-out: 4F2hc-LAT1 IC50 of L-leucine uptake; cited from earlier work
[5] = molecular target: T2, human LAT1 (Homo sapiens, UniProt Q01650); assay: cell-based
Description: (§1) Resulting cells were resuspended in transport buffer (150 mM choline chloride, 1 mM MgCl2, 1 mM CaCl2, 10 mM Tris-HEPES, pH 7.4) containing 50% (v/v) glycerol and the OD600 was adjusted to 40. Cells were stored at −18°C until further use.
(§2) For transport studies, 1 ml of thawed P. pastoris cells (OD600 40) expressing the corresponding transporter were diluted in 50 ml transport buffer and pelleted by centrifugation (3,000 × g, 15 min, room temperature). The pellet was then washed by resuspending it in 50 mL transport buffer and by repeating the washing procedure (centrifugation and resuspension) two times. Finally, the cell pellet was resuspended in 2 ml of transport buffer and incubated for 20 min at 30°C under agitation (300 rpm, Multitron, Infors HT, Bottmingen, Switzerland). […] All transport experiments were performed in a reaction volume of 100 µL. […] The competitors were prepared in 100% (v/v) DMSO. The final DMSO concentration was always 0.5% (v/v), independently of which final substrate or inhibitor concentration was used in the assay. Control samples contained the same concentration of DMSO. Final OD600 values in uptake experiments were 0.75 for all cells (4F2hc-LAT1, LAT1, 4F2hc-LAT2 or LAT2 expressing cells) and untransformed P. pastoris KM71H cells. All transport reactions were done in 2 ml reaction tubes (Eppendorf, Hamburg, Germany) at 25°C under agitation (1,000 rpm, Thermomixer compact, Eppendorf, Hamburg, Germany). Uptakes were terminated after 10 min (uptake time) for all cells by adding 600 µL of pre-chilled transport buffer. Cells were rapidly separated from the buffer by transferring the stopped reactions on a 96-well 0.66 mm glass fiber filter plate (Corning FiltrEX, Corning, NY, United States) and vacuum filtration. Each well was washed with 2 ml of ice-cold transport buffer to remove free radioligand. The plate was then dried overnight at 37°C, and the backside was sealed with a BackSeal (PerkinElmer, Waltham, MA, United States). The trapped radioligand was released by addition of 200 µL scintillation cocktail (MicroScint 40, PerkinElmer, Waltham, MA, United States) to each well, and the plate topside was sealed with Topseal^TM-A Plus (PerkinElmer, Waltham, MA, United States), followed by incubation for 30 min at 25°C and 1,000 rpm (Thermomixer compact, Eppendorf, Hamburg, Germany). Counts were measured in each well for 2 min with a scintillation counter (TopCount NXT, PerkinElmer, Waltham, MA, United States).
(§3) Experiments were performed at least in triplicate. For data analysis, the signal of the untransformed P. pastoris cells was subtracted from the transporter signal to obtain the net transport signal. Data from three independent experiments were taken. […] Every experimental data point was then individually normalized using the corresponding upper plateau values (i.e., the fitted upper plateau value that corresponds to 100%). Single, normalized data points from the three independent experiments were averaged and a sigmoidal model curve was fitted to the data in order to obtain the IC50 values. Prism6 (GraphPad Software) was used for data analysis.

[6] = molecular target: T3, human 4F2hc-LAT2 (Homo sapiens, UniProt Q9UHI5); assay: [3H]L-leucine radioligand transport assay, P. pastoris cells expressing 4F2hc-LAT2; type: cell-based; settings: P. pastoris KM71H cells, OD600 0.75, 0.1 µM [3H]L-leucine, 10 min uptake, 25°C; read-out: IC50 of L-leucine uptake, 4F2hc-LAT2 (this work)
T3 construct: expressed in transfected cells; host or cells: Pichia pastoris KM71H (pPICZB vector)
T3 sequence (Q9UHI5 1-535): T1 sequence (Q9UHI5 1-535)
T3 sequence (P08195 1-529 partner): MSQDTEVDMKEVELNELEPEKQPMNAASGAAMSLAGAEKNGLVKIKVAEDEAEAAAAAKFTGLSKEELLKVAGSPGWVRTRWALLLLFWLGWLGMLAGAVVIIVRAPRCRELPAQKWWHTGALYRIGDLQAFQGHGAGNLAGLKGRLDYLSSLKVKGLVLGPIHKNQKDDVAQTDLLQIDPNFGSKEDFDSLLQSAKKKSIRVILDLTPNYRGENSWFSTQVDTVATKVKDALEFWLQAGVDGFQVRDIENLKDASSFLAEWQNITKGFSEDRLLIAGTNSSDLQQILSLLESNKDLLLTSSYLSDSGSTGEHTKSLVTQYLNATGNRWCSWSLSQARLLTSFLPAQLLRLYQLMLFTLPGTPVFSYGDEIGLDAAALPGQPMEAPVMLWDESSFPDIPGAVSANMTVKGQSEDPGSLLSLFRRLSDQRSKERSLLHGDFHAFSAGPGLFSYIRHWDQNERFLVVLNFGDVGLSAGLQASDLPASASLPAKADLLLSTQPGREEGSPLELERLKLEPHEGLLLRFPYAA

[7] = system: 4F2hc-LAT1; parameters: method as in Kim et al. (2008); settings: host C6 cells; reference cell empty, line above: ref Kim et al. (2008); read-out: 4F2hc-LAT1 IC50 of L-leucine uptake; cited from earlier work
[8] = system: 4F2hc-LAT1; parameters: method as in Yun et al. (2014); settings: host YD-38; ref Yun et al. (2014); read-out: 4F2hc-LAT1 IC50 of L-leucine uptake; cited from earlier work
[9] = molecular target: T3, human 4F2hc-LAT2; settings: cited from earlier work; for IC50: host S2 cells, read-out: 4F2hc-LAT2 IC50 of L-leucine uptake
[10] = system: 4F2hc-LAT1; parameters: method as in Kim et al. (2008); settings: host KB cells; ref Kim et al. (2008); read-out: 4F2hc-LAT1 IC50 of L-leucine uptake; cited from earlier work
[11] = molecular target: T4, human 4F2hc-LAT1 (Homo sapiens, UniProt Q01650); assay: [3H]L-leucine radioligand transport assay, P. pastoris cells expressing 4F2hc-LAT1; type: cell-based
T4 construct: expressed in transfected cells; host or cells: Pichia pastoris KM71H (pPICZB vector)

[12] = molecular target: T2, human LAT1; settings: Pichia cells expressing the light subunits alone
Description: as §1, §2, §3

[13] = system: 4F2hc-LAT1; parameters: method as in Yothaisong et al. (2017); settings: host KKU-055; ref Yothaisong et al. (2017); read-out: 4F2hc-LAT1 IC50 of L-leucine uptake; cited from earlier work
[14] = system: 4F2hc-LAT1; parameters: method as in Yothaisong et al. (2017); settings: host KKU-213; ref Yothaisong et al. (2017); read-out: 4F2hc-LAT1 IC50 of L-leucine uptake; cited from earlier work
[15] = system: 4F2hc-LAT1; parameters: method as in Yothaisong et al. (2017); settings: host KKU-100; ref Yothaisong et al. (2017); read-out: 4F2hc-LAT1 IC50 of L-leucine uptake; cited from earlier work
[16] = system: 4F2hc-LAT1; parameters: method as in Häfliger et al. (2018); settings: host HT-29; ref Häfliger et al. (2018); read-out: 4F2hc-LAT1 IC50 of L-leucine uptake; cited from earlier work
[17] = system: 4F2hc-LAT1; parameters: method as in Häfliger et al. (2018); settings: host 8505c; ref Häfliger et al. (2018); read-out: 4F2hc-LAT1 IC50 of L-leucine uptake; cited from earlier work
[18] = system: 4F2hc-LAT1; parameters: method as in Häfliger et al. (2018); settings: host SW1736; ref Häfliger et al. (2018); read-out: 4F2hc-LAT1 IC50 of L-leucine uptake; cited from earlier work
[19] = system: 4F2hc-LAT2; parameters: method as in Pineda et al. (1999); settings: host Oocytes; ref Pineda et al. (1999); cited from earlier work
[20] = system: 4F2hc-LAT1; settings: host Oocytes, cited from earlier work
[21] = system: 4F2hc-LAT1; parameters: method as in Kantipudi et al. (2020); settings: host Pichia pastoris, ref Kantipudi et al. (2020), cited from earlier work
[22] = system: 4F2hc-LAT2; parameters: method as in Kantipudi et al. (2020); settings: host Pichia pastoris, ref Kantipudi et al. (2020), cited from earlier work
[23] = P. pastoris KM71H cells, OD600 0.75, 0.1 µM [3H]L-leucine, 10 min uptake, 25°C, read-out: IC50 of L-leucine uptake, 4F2hc-LAT1 (this work)

T2 sequence (Q01650 whole entry): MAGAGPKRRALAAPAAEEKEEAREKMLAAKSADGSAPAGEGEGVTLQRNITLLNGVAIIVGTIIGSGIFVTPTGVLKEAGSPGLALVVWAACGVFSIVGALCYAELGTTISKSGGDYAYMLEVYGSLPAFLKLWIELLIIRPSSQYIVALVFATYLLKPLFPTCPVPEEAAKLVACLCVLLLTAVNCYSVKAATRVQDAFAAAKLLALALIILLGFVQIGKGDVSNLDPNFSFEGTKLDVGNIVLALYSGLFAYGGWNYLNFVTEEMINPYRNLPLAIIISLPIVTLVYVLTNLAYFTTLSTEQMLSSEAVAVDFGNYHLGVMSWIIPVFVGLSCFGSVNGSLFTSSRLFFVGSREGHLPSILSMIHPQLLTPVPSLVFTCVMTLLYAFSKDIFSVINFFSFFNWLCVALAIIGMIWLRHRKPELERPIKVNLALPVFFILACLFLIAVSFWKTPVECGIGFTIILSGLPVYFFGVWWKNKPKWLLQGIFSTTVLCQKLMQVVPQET
T4 sequence (Q01650 whole entry, one chain of several): as the sequence (Q01650 whole entry) above

SMILES: NC1(C(=O)O)CC2CCC1C2 (stereo not shown) [BCH, 2-aminobicyclo-(2,2,1)-heptane-2-carboxylic acid]
- IC50 ([1]; host S2 cells, ref Morimoto et al. (2008)): 132 ± 27.8 µM
- IC50 [2]: 184 µM
- IC50 ([3]; ref Choi et al. (2017)): 72.2 ± 0.92 µM
- IC50 ([3]; ref Kim et al. (2008)): 78.8 ± 3.5 µM
- IC50 [4]: 78.3 ± 12.1 µM
- IC50 [5]: 78 µM
- IC50 [6]: 195 µM
- IC50 [7]: 73.1 ± 4.5 µM
- IC50 [8]: 92.6 ± 8.9 µM
- IC50 ([9]; ref Morimoto et al. (2008)): 315 ± 68.6 µM
- IC50 [10]: 75.3 ± 6.7 µM
- IC50 [11, 23]: 72 µM
- specificity for 4F2hc-LAT1 compared with 4F2hc-LAT2 (from IC50s) ([11]; P. pastoris cell assay): about 2.7 fold

- IC50 [2]: 1.7 µM
- IC50(Pichia-LAT2)/IC50(Pichia-LAT1) ratio [12]: about 4.9
- IC50 [5]: 0.346 µM
- IC50 [6]: 1.5 µM
- IC50 [11, 23]: 0.197 µM
- IC50(Pichia-4F2hc-LAT2)/IC50(Pichia-4F2hc-LAT1) ratio ([11]; P. pastoris cell assay): about 7.6
- specificity for 4F2hc-LAT1 compared with 4F2hc-LAT2 (from IC50s) ([11]; P. pastoris cell assay): about 7.6 fold
SMILES: Nc1cc(COc2c(Cl)cc(C[C@H](N)C(=O)O)cc2Cl)c2oc(-c3ccccc3)nc2c1 [JPH203, (S)-2-amino-3-(4-((5-amino-2-phenylbenzo [d]oxazol-7-yl)-methoxy)-3,5-dichlorophenyl)-propanoic acid]
- IC50(S2-LAT2)/IC50(S2-LAT1) ratio ([1]; S2 cells, ref Oda et al. (2010)): > 500
- IC50 ([1]; host S2 cells, ref Endou et al. (2008)): 0.19 µM and 0.2 µM
- IC50 ([1]; host S2 cells, ref Oda et al. (2010)): 0.14 µM
- IC50 ([3]; ref Choi et al. (2017)): 1.31 ± 0.27 µM
- IC50 [13]: 0.2 ± 0.03 µM
- IC50 [14]: 0.12 ± 0.02 µM
- IC50 [15]: 0.25 ± 0.04 µM
- IC50 [8]: 0.79 ± 0.06 µM
- IC50 [16]: 0.134 µM
- inhibition of human 4F2hc-LAT2 ([9]; S2 cell-based assay, at 10 µM, ref Endou et al. (2008)): almost no inhibition
- IC50 ([9]; ref Oda et al. (2010)): > 10 µM
- IC50 [17]: 0.12 µM
- IC50 [18]: 0.177 µM

- IC50 [2]: 39 µM
- IC50 [5]: 9 µM
- IC50 [6]: 210 µM
- IC50 [11, 23]: 22 µM
SMILES: CC(C)C[C@H](N)C(=O)O [L-leucine]
- Km [19]: 220 µM
- Km ([20]; ref Friesema et al. (2001)): 46 µM
- Km ([20]; ref Kanai et al. (1998)): 18.1 ± 3.4 µM
- Km ([20]; ref Yanagida et al. (2001)): 19.7 ± 4.1 µM
- IC50 ([21]; read-out: 4F2hc-LAT1 IC50 of L-leucine uptake): 38 µM
- Km ([21]; read-out: 4F2hc-LAT1 KM of L-leucine uptake): 25 ± 3 µM
- IC50 ([22]; read-out: 4F2hc-LAT2 IC50 of L-leucine uptake): 221 µM
- Km ([22]; read-out: 4F2hc-LAT2 KM of L-leucine uptake): 249 ± 22 µM

SMILES: N[C@@H](Cc1cc(I)c(Oc2ccc(O)c(I)c2)c(I)c1)C(=O)O [T3, triiodothyronine]
- Km ([20]; ref Friesema et al. (2001)): 0.8 µM
- Km ([20]; ref Ritchie et al. (1999)): 1.8 µM

SMILES: NC(Cc1cc(I)c(Oc2cc(I)c(O)c(I)c2)c(I)c1)C(=O)O (stereo not shown) [T4, thyroxine]
- Ki ([1]; host S2 cells, ref Morimoto et al. (2008), read-out: 4F2hc-LAT1 Ki of L-leucine uptake): 115 ± 2 µM
- IC50 [2]: 25 µM
- IC50 [5]: 8 µM
- IC50 [6]: 42 µM
- Km ([20]; ref Friesema et al. (2001)): 7.9 µM
- Km ([20]; ref Ritchie et al. (1999)): 6.3 µM
- IC50 [11]: 10 µM
- specificity for 4F2hc-LAT1 compared with 4F2hc-LAT2 (from IC50s) ([11]; P. pastoris cell assay): about four-times higher
